According to PMC3265359 (Biochemical Journal, 2010):
Where two headings read alike, the source gives them in different places.

Tests used:
COX-1 = biological target: T1, COX-1 (Ovis aries, UniProt P05979); test: Inhibition of COX-1 activity by quantification of PGE2; format: biochemical
T1 sequence (P05979 25-600): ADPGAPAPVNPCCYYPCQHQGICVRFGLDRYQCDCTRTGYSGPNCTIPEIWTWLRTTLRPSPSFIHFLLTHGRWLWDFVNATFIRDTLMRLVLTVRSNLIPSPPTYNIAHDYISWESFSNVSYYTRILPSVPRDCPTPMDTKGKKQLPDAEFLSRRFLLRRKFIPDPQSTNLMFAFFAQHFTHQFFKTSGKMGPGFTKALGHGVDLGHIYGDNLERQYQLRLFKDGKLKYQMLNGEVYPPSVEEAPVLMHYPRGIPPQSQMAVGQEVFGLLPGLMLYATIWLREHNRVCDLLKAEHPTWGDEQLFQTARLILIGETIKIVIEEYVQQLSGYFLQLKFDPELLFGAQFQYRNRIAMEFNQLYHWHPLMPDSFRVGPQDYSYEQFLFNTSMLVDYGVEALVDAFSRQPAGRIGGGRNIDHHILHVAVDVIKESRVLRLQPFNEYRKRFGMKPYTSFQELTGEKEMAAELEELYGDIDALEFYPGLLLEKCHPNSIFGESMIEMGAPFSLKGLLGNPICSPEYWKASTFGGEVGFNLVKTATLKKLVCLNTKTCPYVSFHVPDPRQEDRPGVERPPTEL

QR2 [1] = biological target: T2, QR2 (Homo sapiens, UniProt P16083); test: QR2 steady-state kinetics; format: biochemical; conditions: for Ki: read-out: QR2 Ki, Table 1 value; for Inhibition of QR2: up to 100 μM compound, 5 nM QR2, 100 μM NMeH, 30 μM menadione
T2 sequence (P16083 1-231): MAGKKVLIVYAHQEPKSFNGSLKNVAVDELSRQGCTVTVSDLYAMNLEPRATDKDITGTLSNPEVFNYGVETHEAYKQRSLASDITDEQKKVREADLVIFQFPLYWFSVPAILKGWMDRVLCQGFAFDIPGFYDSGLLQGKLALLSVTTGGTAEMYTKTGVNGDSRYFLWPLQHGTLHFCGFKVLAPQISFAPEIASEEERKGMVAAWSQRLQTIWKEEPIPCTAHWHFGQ

COX-2 = biological target: T3, COX-2 (Homo sapiens, UniProt P35354); test: Inhibition of COX-2 activity by quantification of PGE2; format: biochemical
T3 sequence (P35354 18-604): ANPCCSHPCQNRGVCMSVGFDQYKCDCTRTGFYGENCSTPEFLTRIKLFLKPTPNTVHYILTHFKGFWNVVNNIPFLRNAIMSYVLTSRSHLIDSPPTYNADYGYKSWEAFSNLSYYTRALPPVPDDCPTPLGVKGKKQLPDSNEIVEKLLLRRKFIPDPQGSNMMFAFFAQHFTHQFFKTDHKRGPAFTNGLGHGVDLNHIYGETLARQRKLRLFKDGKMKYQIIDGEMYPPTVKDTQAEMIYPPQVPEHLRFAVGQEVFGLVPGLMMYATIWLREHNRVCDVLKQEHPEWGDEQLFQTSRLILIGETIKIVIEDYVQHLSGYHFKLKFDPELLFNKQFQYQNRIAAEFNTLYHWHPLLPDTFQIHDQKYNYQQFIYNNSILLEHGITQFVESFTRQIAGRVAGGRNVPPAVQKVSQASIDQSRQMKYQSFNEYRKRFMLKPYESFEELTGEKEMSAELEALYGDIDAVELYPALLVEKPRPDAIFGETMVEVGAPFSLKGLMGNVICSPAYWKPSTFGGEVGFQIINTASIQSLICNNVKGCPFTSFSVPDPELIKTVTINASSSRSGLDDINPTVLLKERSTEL

[2] = after an oral dose of pure resveratrol; cited from earlier work
QR2 [3] = biological target: T2, QR2; test: ITC titration of resveratrol into QR2; format: binding
QR1 = test: Effect of resveratrol on QR1 activity in Hepa 1c1c7 cells; format: cell-based; conditions: Hepa 1c1c7 mouse hepatoma cells, 48 h
SIRT1 = biological target: T4, SIRT1 (Homo sapiens, UniProt Q96EB6); test: ITC titration of resveratrol into SIRT1; format: binding; conditions: 20 μM SIRT1, no substrates
T4 sequence (Q96EB6 1-747): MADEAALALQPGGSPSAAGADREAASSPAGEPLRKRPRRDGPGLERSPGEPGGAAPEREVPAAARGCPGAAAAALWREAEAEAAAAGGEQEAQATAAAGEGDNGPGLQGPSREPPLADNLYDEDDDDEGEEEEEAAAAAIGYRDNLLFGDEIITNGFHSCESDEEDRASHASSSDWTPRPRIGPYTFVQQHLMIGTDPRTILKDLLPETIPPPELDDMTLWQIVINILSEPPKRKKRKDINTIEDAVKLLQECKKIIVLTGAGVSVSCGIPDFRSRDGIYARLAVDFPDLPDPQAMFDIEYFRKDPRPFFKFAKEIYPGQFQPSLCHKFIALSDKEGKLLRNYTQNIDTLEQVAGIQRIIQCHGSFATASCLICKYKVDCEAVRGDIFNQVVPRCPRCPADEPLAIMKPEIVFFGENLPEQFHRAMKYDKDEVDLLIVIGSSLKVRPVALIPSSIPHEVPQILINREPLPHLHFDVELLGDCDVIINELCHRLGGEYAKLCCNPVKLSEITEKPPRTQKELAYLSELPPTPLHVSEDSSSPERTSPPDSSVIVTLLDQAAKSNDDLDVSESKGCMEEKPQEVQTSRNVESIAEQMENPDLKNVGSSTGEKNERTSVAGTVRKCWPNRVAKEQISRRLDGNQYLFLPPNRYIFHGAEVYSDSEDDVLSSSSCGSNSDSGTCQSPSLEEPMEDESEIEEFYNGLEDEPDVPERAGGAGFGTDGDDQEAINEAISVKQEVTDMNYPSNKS

| SMILES | IC50 (COX-1) [µM] | Ki (QR2 [1]) [µM] | Inhibition of QR2 (QR2 [1]) | IC50 (COX-2) [µM] | Human plasma concentration [2] [µM] | IC50 (COX-1; read-out: COX-1 IC50, PGE2 produced from arachidonic acid) [µM] | ΔH of binding to QR2 (QR2 [3]) | TΔS of binding to QR2 (QR2 [3]; as printed in Figure 6 legend) [kcal/mol] | N (ITC binding stoichiometry, QR2) (QR2 [3]; single binding site model) | QR2 Ki, uncompetitive against menadione (QR2 [1]; varied menadione, NMeH 100 μM) [µM] | Effect on QR1 activity (QR1) | Binding to SIRT1 by ITC (SIRT1) |
| --- | --- | --- | --- | --- | --- | --- | --- | --- | --- | --- | --- | --- |
| O=S(=O)(O)Oc1cc(O)cc(C=Cc2ccc(O)cc2)c1 [Resveratrol-3-O-sulfate, resveratrol-3-O-sulfate] | 68 ± 2.8 | > 100 | cannot detect any inhibitory activity | > 300 |  |  |  |  |  |  |  |  |
| O=S(=O)(O)Oc1ccc(C=Cc2cc(O)cc(O)c2)cc1 [Resveratrol-4′-O-sulfate, resveratrol-4′-O-sulfate] | 5.1 ± 0.55 | > 100 | cannot detect any inhibitory activity | 2.5 ± 0.35 | 2 to 10 |  |  |  |  |  |  |  |
| O=C(O)[C@H]1O[C@@H](Oc2cc(O)cc(/C=C/c3ccc(O)cc3)c2)[C@H](O)[C@@H](O)[C@@H]1O [Resveratrol-3-O-glucuronide, resveratrol-3-O-glucuronide] |  |  |  |  |  | 150 ± 5.8 |  |  |  |  |  |  |
| Oc1ccc(/C=C/c2cc(O)cc(O)c2)cc1 [Resveratrol, 3,5, 4′-trans-trihydroxystilbene] | 1.1 ± 0.44 |  |  |  |  |  | –14 kcal/mol | 3.9 | 0.9 | 0.9 ± 0.1 | only a weak activator | no detectable change in heat |
